Test results from patent US20220249458A1, “Agonists Of Adiponectin” (BAYER AKTIENGESELLSCHAFT, priority 2019, published 2022).
Read-outs that look alike come from different tables or passages of the source.

Key:
[1] = system: StAR mRNA in Y-1 cells; test: StAR mRNA induction by ACTH in adrenal cell line Y-1; assay type: cell-based, mouse
Procedure: (§1) Y-1 cells (epithelial cells of mouse adrenal gland origin) were cultivated in F12-K medium with 10% FBS and 15% donor horse serum. Cells were treated with 10 nM ACTH, and 30 min later the Adipor1/2 agonist AdipoRon was added in a final concentration of 0.1 μM, 1 μM, 10 μM for two and a half hours. Cells were harvested, mRNA isolated and […] and Star mRNA quantified relative to β-actin (Actb) mRNA. Hatched column: vehicle control, grey column: 10 nM ACTH, white columns: 10 nM ACTH+0.1 μM, 1 μM, or 10 μM AdipoRon.
(§2) ACTH is a hormone of the Hypothalamic-pituitary-adrenal axis and stimulates the expression of Steroidogenic acute regulatory protein (StAR) and […] ([…]), which then can lead to cortisol production and, as a consequence, insulin resistance. Insulin insensitivity is observed in women diagnosed with PCOS. […] EC50 for AdipoRon for this effect is around 10 μM for StAR, and around 0.1 to 1 μM for Cyp11b1, but seems to be saturated at higher concentrations.

[2] = system: Cyp11b1 mRNA in Y-1 cells; test: Cyp11b1 mRNA induction by ACTH in adrenal cell line Y-1; assay type: cell-based, mouse; conditions: for EC50: Mus musculus
Procedure: as §1, §2

[3] = system: LH; test: LH concentration in plasma of female rats at proestrous; assay type: in vivo, rat; conditions: female Han-Wistar rats, 50 or 100 mg/kg twice a day for one estrous cycle, d3 proestrous 7 pm
Description: For this, the cycle phase of untreated naive female Han-Wistar rats was staged by vaginal smears. Rat plasma was taken at different days and time points of the cycle (d3=proestrous, d4=estrous), and LH in plasma determined by a rat pituitary magnetic bead panel (Milliplex, Cat No RPTMAG-86K). LH peak could be detected at d3 at 7 pm in the afternoon as described previously (Smith et al. 1975). Thus, this time point is well suited for measurement of the effect of AdipoR1 and/or AdipoR2 receptors activation by AdipoRon. […] For this, the cycle phase of untreated naive female Han-Wistar rats was staged by vaginal smears. Rats were treated for one estrous cycle, beginning with metestrous, with 50 mg/kg or 100 mg/kg of Adiporon in a suitable vehicle twice a day. Rat plasma was taken at d3=proestrous at 7 pm, and LH was determined by a rat pituitary magnetic bead panel (Milliplex Cat No RPTMAG-86K).

[4] = Single dose exposure experiment in db/db mice (unbound plasma concentration, LC/MS); assay type: in vivo; conditions: 100 mg/kg p.o. single dose, adult female db/db mice, 0.5 h, 1 h, 4 h
Procedure: At t=0, a dose of 50 mg/kg (circle) or 100 mg/kg (squares) was given p.o. to adult female db/db mice. At each time point (0.5 h, 1 h, and 4 h) three mice were killed and the plasma concentration of unbound AdipoRon was determined by LC/MS.

[5] = system: Lhcgr mRNA; test: Lhcgr mRNA expression in ovaries of db/db mice; assay type: in vivo; conditions: 50 mg/kg single po dose, 0.5-24 h
Procedure: (§3) FIGS. 6A and 6B Lhcgr mRNA expression (6A) and Cyp17a1 mRNA expression (6B) in ovaries of untreated db/db mice (black column) or db/db mice treated with 50 mg/kg Adiporon (grey column) is shown (n=3 biological replicates; error bars show SD). Expression of Cyp17a1 and Lhrgr mRNA in ovaries of adult female db/db mice were analyzed for untreated mice or mice treated with 50 mg/kg Adiporon as a single po dose given at t=0 h. At 0.5 h, 1 h, 2 h, 4 h, 24 h, mice were killed, and ovaries were taken, mRNA isolated (Qiagen, RNeasy Mini kit #74106) and mRNA quantified by Q-PCR (ThermoFisher Scientific Assay on demand #Mm00484040_ml for Cyp17a1 and Mm00442931_ml for Lhcgr).

[6] = system: Cyp17a1 mRNA; test: Cyp17a1 mRNA expression in ovaries of db/db mice; assay type: in vivo; conditions: 50 mg/kg single po dose, 0.5-24 h
Procedure: as §3

[7] = system: steroid synthesis in db/db mice; test: Plasma AUC of testosterone and progesterone in female db/db mice; assay type: in vivo; conditions: single po dose 50 and 100 mg/kg, significant at 100 mg/kg (p<0.1)
Procedure: Female db/db mice, which were untreated, or treated with Adiporon at 50 mg/kg and 100 mg/kg with a single po dose, were analysed. Blood was taken at 0.5, 1, 2, 4, and 24 hours, and plasma concentrations of progesterone (ibl/Tecan Order No RE52231, Hamburg) and testosterone (Demeditec Order No DEV9911, Kiel) were determined by commercial ELISAs. Area under the curve (AUC) of total steroids was determined by an algorithm according to Gagnon et al. (1998) by GraphPadPrism software. […] The effects are significant at the higher dosage of AdipoRon of 100 mg/kg after a single application (* t-test AUC versus 100 mg/kg Adiporon (n=5 time points), double sided; p<0.1).

[8] = system: DHEA-induced PCOS Model in rats; test: DHEA-induced PCOS Model in rats; assay type: in vivo, rat; conditions: 60 mg/kg/d DHEA sc 20 days, 50 mg/kg/d Adiporon last 10 days
Description: FIG. 8: Plasma testosterone concentration [nM] […] An autostimulation of adiponectin by stimulation of AdipoR1 and/or AdipoR2 has been described before and validates the activity of AdipoRon on the AdipoR1 and/or AdipoR2 receptors (Jardé et al. 2009).

[9] = system: tgLH mice; test: Oral glucose tolerance test in transgenic mice overexpressing LH (tgLH); assay type: in vivo; conditions: 100 mg/kg/d for four weeks, 2 g/kg glucose after 6 h fasting
Procedure: 9A: Plasma insulin concentration [mg/L] in wt-mice (light grey column) and untreated tgLH mice (dark grey column) or tgLH mice treated with 100 mg/kg Adiporon (black column) is shown. 9B: Insulin concentrations [ng/mL] during OGTT in wt (left diagram) and Adipor1−/−Adipor2−/−tg mice (right diagram) treated with vehicle (open circle) or treated with 100 mg/kg (circle) are shown.
Increased LH secretion is causal for the development of PCOS in women, and tgLH overexpression in mice recapitulates the human PCOS phenotype in women. For this experiment, an oral glucose tolerance test was performed in control, transgenic LH overexpressing mice, and tgLH mice treated with Adiporon at 100 mg/kg/d for four weeks. To determine insulin sensitivity, plasma was taken at 15 min after giving an oral glucose gavage of 2 g/kg after fasting of the mice for 6 h in the last two days of the experiment (Andrikopoulos et al. 2008).

[10] = system: wt and Adipor1−/−Adipor2−/− mice; conditions: FIG. 9B, cited from earlier work
[11] = molecular target: T1, adiponectin receptor 1 (AdipoR1) (Homo sapiens, UniProt Q96A54); conditions: Dib et al. 2017; cited from earlier work
T1 sequence (Q96A54 1-375): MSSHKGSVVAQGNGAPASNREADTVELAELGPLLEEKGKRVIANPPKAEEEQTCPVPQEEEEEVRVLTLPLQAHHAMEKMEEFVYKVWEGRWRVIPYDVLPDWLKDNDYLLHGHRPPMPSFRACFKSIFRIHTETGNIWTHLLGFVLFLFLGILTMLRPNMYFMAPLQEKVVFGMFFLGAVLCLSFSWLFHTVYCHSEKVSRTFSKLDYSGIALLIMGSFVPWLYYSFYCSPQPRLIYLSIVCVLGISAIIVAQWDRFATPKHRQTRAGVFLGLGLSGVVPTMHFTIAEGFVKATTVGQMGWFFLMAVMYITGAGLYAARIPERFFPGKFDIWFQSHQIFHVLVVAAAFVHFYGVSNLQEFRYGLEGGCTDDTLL

[12] = molecular target: T2, adiponectin receptor 2 (AdipoR2) (Homo sapiens, UniProt Q86V24); conditions: Dib et al. 2017; cited from earlier work
T2 sequence (Q86V24 1-386): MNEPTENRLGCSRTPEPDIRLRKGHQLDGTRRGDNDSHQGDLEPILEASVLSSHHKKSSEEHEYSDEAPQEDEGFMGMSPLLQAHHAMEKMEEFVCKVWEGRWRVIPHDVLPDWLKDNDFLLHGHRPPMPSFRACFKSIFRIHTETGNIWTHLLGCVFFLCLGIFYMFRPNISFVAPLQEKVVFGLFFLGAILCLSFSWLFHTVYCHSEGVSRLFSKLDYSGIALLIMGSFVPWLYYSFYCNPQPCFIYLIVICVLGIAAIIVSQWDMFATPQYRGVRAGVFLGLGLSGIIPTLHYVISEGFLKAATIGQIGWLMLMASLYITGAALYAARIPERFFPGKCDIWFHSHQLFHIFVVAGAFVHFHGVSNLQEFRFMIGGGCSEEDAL

Row | EC50 ([1]; Mus musculus, 10 nM ACTH, AdipoRon two and a half hours, FIG. 2A, read-out: EC50 for reduction of the induction of StAR by ACTH) [nM] | EC50 ([2]; Y-1 cell, as restated for FIG. 5 (see FIG. 2), read-out: EC50 value for effects in Y-1 cell) [nM] | EC50 ([2]; Y-1 cells, 10 nM ACTH, AdipoRon two and a half hours, FIG. 2B, seems saturated at higher concentrations, read-out: EC50 for reduction of the induction of Cyp11b1 by ACTH) [nM] | plasma concentration of unbound AdipoRon versus EC50 [4] | SMILES | effect on induction of StAR mRNA by ACTH ([1]; 10 nM ACTH + 0.1, 1 or 10 μM) | effect on induction of Cyp11b1 mRNA by ACTH ([2]; Y-1 cells, 10 nM ACTH + 0.1, 1 or 10 μM) | LH concentration in plasma [3] | Lhcgr (LH receptor) mRNA expression in ovaries [5] | Cyp17a1 mRNA expression in ovaries [6] | plasma AUC of progesterone [7] | plasma AUC of testosterone [7] | plasma adiponectin concentration [8] | Plasma testosterone concentration ([8]; p<0.05) | insulin sensitivity (plasma insulin 15 min after oral glucose) [9] | Insulin concentrations during OGTT, Adipor1−/−Adipor2−/− mice ([10]; mice double negative for Adiponectin Receptors 1 and 2, 100 mg/kg) | Insulin concentrations during OGTT, wild-type mice ([10]; wt mice, 100 mg/kg) | binding to AdipoR1 [11] | binding to AdipoR2 [12]
1 | ~10000 | ~100 | 100 to 1000 | reaches the EC50 value | O=C(COc1ccc(C(=O)c2ccccc2)cc1)NC1CCN(Cc2ccccc2)CC1 [AdipoRon, 2-(4-Benzoylphenoxy)-N-(1-benzylpiperidin-4-yl)acetamide] | dose-dependently reduces the induction | dose-dependently reduces the induction | dose-dependently reduces the induction of LH | decreases the expression | decreases the expression | increases Progesterone plasma concentration | reduces Testosterone plasma concentration | normalizes plasma adiponectin | significantly reduces the increase in Testosterone | insulin sensitivity is increased | no effect on plasma insulin | comparable data | – | –
2 | – | – | – | – | COc1ccc(CN2CCN(C(=O)CCNC(=O)c3ccc(C(C)(C)C)cc3)CC2)cc1 [Compound 112254, 4-(tert-Butyl)-N-(3-(4-(4-methoxybenzyl)piperazin-1-yl)-3-oxopropyl)benzamide] | – | – | – | – | – | – | – | – | – | – | – | – | binds to AdipoR1 and AdipoR2 | binds to AdipoR1 and AdipoR2
